Source: patent US10391070B2, “Compositions and methods for treating neurological diseases or injury” (MUSC FOUNDATION FOR RESEARCH DEVELOPMENT, priority 2012, dated 2019)
Where “and” joins values, the source holds several entries; their conditions need not be identical. Equal entries are not always repeated.

Key:
[1] = Chronic toxicity evaluation in mice (blood count and chemistry); type: in vivo, mouse; conditions: for blood count and chemistry parameters versus vehicle / weight loss, signs of pain or distress: mice, 50 mg/kg i.p. daily, three weeks
Procedure: Adult (12 weeks of age) mice (Balb/cByJ, 17-20 g, Jackson Laboratory), were housed in temperature-controlled conditions under a light/dark photocycle with food and water supplied ad libitum. Mice were divided randomly into three groups. The first group (n=3) was injected i.p. with compound 2q at 50 mg/kg dissolved in sterile 5% DMSO, 95% Neobee (Spectrum Chemical) (Allen et al., 2006). The second group (n=3) was injected i.p. with compound 2j at 50 mg/kg dissolved in sterile 5% DMSO, 95% Neobee. The third, vehicle control group (n=2) was injected i.p. with an equivalent volume of sterile 5% DMSO, 95% Neobee. All animals were injected between 11:00 a.m. and 12:00 p.m. Animals were sacrificed by CO2 after three weeks of injections. Blood was collected by cardiac puncture and standard blood count and chemistry was evaluated by the MUSC/VA Veterinary Diagnostic Laboratory (Charleston, S.C.). All animal and treatment protocols were in compliance with the Guide for the Care and Use of Laboratory Animals as adopted and promulgated by the National Institutes of Health (Institute of Laboratory Animal Resources, 1996).
Preliminary in vivo toxicity was assessed for compounds 2q and 2j in mice. […] Adult mice were injected intraperitoneally (i.p.) daily. […] After three weeks of chronic, high dose injections, animals were sacrificed and standard blood count and chemistry analyses performed.

corneal kindled seizures = test: Corneal kindled mouse model; type: in vivo; conditions: mice, 100 mg/kg i.p., 0.25 hrs
Procedure: Mouse studies were performed by NIH Anticonvulsant Screening Program at the National Institute of Neurological Disorders and Stroke (Stables and Kupferberg, 1997) according to the established NIH experimental procedures outlined below. Compounds were delivered into mice by i.p. injection at a dose of 100 mg/kg in sterile 5% DMSO, 95% Neobee (Josey et al., 2013). One of four methods for seizure induction was subsequently administered to mice at 0.25, 0.5, 1, 2 and 4 h after treatment with compound. (1) Subcutaneous PTZ seizure threshold test. PTZ was administered at a concentration of 85 mg/kg, into the loose fold of skin in the midline of the neck. […] (2) Maximal electroshock test. 60 Hz of 50 mA alternating current was delivered for 0.2 s by corneal electrodes. Mice were considered protected from seizures when the hindlimb tonic extensor was absent (White et al., 1995). (3) Minimal clonic seizure (6 Hz) test. 6 Hz of 32 mA or 44 mA alternating current was delivered for 3 s by corneal electrodes to elicit a psychomotor seizure. Mice were considered protected from seizures when the automatistic behaviors were absent (Barton et al., 2001). (4) Corneal kindled mouse model. […]

[2] = Presence in mouse brain by LC-MS; type: in vivo; conditions: mice, i.p. daily for three weeks, brain 2 hours after final injection
Procedure: VK2 is synthesized in situ where it is needed. […] Utilizing small synthetic VK analog that can perform similarly to VK2 is of novelty for epileptic treatment. Mice were under I.P. daily injection of 2q for three weeks and their brains were harvested 2 hours after the final injection. The mouse brains were extracted with organic solvent. The presence and the level of 2q were determined using LC-MS techniques (FIG. 9). The presence of 2q was detected via mass spectrometry in the mice brain 2 hours after i.p. injections.

[3] = mouse blood chemistry, 50 mg/kg, 3 wks i.p., individual animals 1-3
[4] = mouse complete blood count, 50 mg/kg, 3 wks i.p., individual animals 1-3

For `O=C1C=C(NCc2ccccc2)C(=O)c2ccccc21` [Compound 2j, 2-(benzylamino)naphthalene-1,4-dione], the “blood count and chemistry parameters versus vehicle” value [1] was “consistent with those of the vehicle control group” and the “weight loss, signs of pain or distress” value [1] was “no weight loss or outward signs of pain or distress”.

For `C#CCNC1=CC(=O)c2ccccc2C1=O` [Compound 2h, 2-(prop-2-yn-1-ylamino)naphthalene-1,4-dione], the Avg seizure score (corneal kindled seizures) was 3.75 and the “N/F (animals protected/animals tested)” value (corneal kindled seizures) was 2/4.

In the case of `O=C1C=C(NCc2cccc(Cl)c2)C(=O)c2ccccc21` [Compound 2q, 2-((3-chlorobenzyl)amino)naphthalene-1,4-dione], the “blood count and chemistry parameters versus vehicle” value [1] is reported as “consistent with those of the vehicle control group”, the “weight loss, signs of pain or distress” value [1] is reported as “no weight loss or outward signs of pain or distress” and the ALP [1, 3] is reported as 72 U/L and 80 U/L and 60 U/L. For the same compound, the ALT [1, 3] was 34 U/L and 28 U/L and 33 U/L, the AST [1, 3] was 89 U/L and 71 U/L and 78 U/L and the Albumin [1, 3] was 3 g/dL and 3.2 g/dL and 2.8 g/dL. The BUN [1, 3] was 19 mg/dL (2×) and 20 mg/dL, the Creatinine [1, 3] was 0.16 mg/dL and 0.23 mg/dL and 0.18 mg/dL and the Glucose [1, 3] was 195 mg/dL (2×) and 205 mg/dL. The “Total Bilirubin” value [1, 3] was 0.20 mg/dL, the “Total Protein” value [1, 3] was 5.2 g/dL and 5.3 g/dL and 4.9 g/dL and the BA [1, 4] was 0.01 K/uL and 0.05 K/uL and 0.02 K/uL. For the same compound, the EO [1, 4] was 0.10 K/uL and 0.17 K/uL and 0.01 K/uL, the HCT [1, 4] was 51.1% and 53.2% and 51.3% and the Hb [1, 4] was 13.9 g/dL (2×) and 14.5 g/dL. The LY [1, 4] was 3.30 K/uL and 5.14 K/uL and 2.45 K/uL, the MCH [1, 4] was 14.8 pg (2×) and 15.3 pg and the MCHC [1, 4] was 27.2 g/dL and 27.3 g/dL and 27.1 g/dL. The MCV [1, 4] was 54.4 fL and 56.2 fL and 54.8 fL, the MO [1, 4] was 0.32 K/uL and 0.43 K/uL and 0.35 K/uL and the MPV [1, 4] was 4.5 fL and 4.6 fL and 4.4 fL. For the same compound, the NE [1, 4] was 5.55 K/uL and 3.03 K/uL and 3.78 K/uL, the PLT [1, 4] was 1139 K/uL and 946 K/uL and 1050 K/uL and the RBC [1, 4] was 9.39 M/uL and 9.46 M/uL and 9.37 M/uL. The RDW [1, 4] was 17.8% and 17.7% and 17.4%, the WBC [1, 4] was 9.28 K/uL and 8.82 K/uL and 6.62 K/uL and the “presence in brain (LC-MS)” value [2] was “detected”.
